Assay results published in patent US20240000950A1, “THERAPEUTIC CURE-PRO COMPOUNDS FOR TARGETED DEGRADATION OF BET DOMAIN PROTEINS, AND METHODS OF MAKING AND USING THEM” (CORNELL UNIVERSITY, priority 2020, published 2024).
“Also recorded” adds a separate entry of the source.

Tests used:
Assay type in all cases: cell-based
BRD4 [1] = biological target: T1, BRD4 (Homo sapiens, UniProt O60885); test: CURE-PRO-mediated BRD4 degradation in HeLa cells, Western blot; design: endogenous in cells; host or cells: HeLa; details: 24 h
Experimental: (§1) All cell lines were purchased from ATCC or DSMZ and grown at 37° C. with 5% C02. Human HeLa cells were cultured in complete growth medium (Dulbecco's modified Eagle's medium (DMEM) supplemented with 10% FBS); MCF7 cells were cultured in complete growth medium (Dulbecco's modified Eagle's medium (DMEM) supplemented with 10% FBS and 0.01 mg/ml human recombinant insulin (Sigma Aldrich); Namalwa and MOLM-13 cells were cultured in complete growth medium (RPMI 1640 medium supplemented with 10% FBS); MV-4-11 were cultured in complete growth medium (Iscove's Modified Dulbecco's medium, supplemented with 10% FBS); HCT116 cells were cultured in complete growth medium (McCoy's 5a Medium supplemented with 10% FBS). For cellular degradation of BRD4 studies, cells were seeded in a 12-well plate at 70-80% confluency, allowed to attach overnight, and incubated with the indicated compounds for the indicated time. When indicated, a 15-minute pretreatment with 10 μM pomalidomide, 10 μM VHL298, 10 μM Nutlin3a, 1 μM MG-132 or 1 μM Carfilzomib was performed before the addition of CURE-PROs. For washout studies, after CURE-PRO treatment, media was aspirated and incubated with complete medium for the indicated time before lysis.
Anti-BRD4 (13440, 1:1,000 dilution for Western Blot and 1:25 dilution for ProteinSimple); Anti-BRD2 (5848 1:1,000 dilution for Western Blot and 1:25 dilution for ProteinSimple); β-Actin (3700, 1:2,000 dilution for Western Blot), β-Actin (4970, 1:50 dilution for ProteinSimple) anti-mouse IgG-HRP, and anti-rabbit IgG-HRP antibodies were purchased Cell Signaling Technology. Anti-GAPDH (600-401-A33, 1:100 dilution for ProteinSimple) was purchased from Rockland Immunochemicals, Inc. Anti-BRD3 (sc-81202, 1:200 dilution for Western Blot) was purchased from Santa Cruz Biotechnology.
(§2) HeLa, MCF7, or HCT116 cells (2.5-3×10^6) were treated for 24 hours with the indicated compounds solubilized in DMSO. The cells were washed in ice-cold PBS and were then lysed in RIPA lysis buffer (150 mM NaCl, 5 mM EDTA, 1% NP-40, 0.5% sodium deoxycholate, 0.1% SDS, 50 mM Tris, pH 8.0) with Roche protease inhibitor complete cocktail and phosphatase inhibitors (10 mM sodium fluoride, 10 mM sodium pyrophosphate, 1 mM sodium orthovanadate and 20 mM β-glycerophosphate). The total protein concentrations were determined by Bradford Protein Assay and 10-20 μg of protein was loaded onto 4-15% Tris-Glycine gradient gels (Biorad). After standard gel electrophoresis, the separated proteins were transferred to PVDF membrane by wet transfer. The immunoblots were then blocked for 1 hour in 5% skim milk in TBST or 5% BSA in TBST, according to manufacturer's instructions, before an overnight incubation at 4° C. with indicated antibodies and membranes. Membranes were then incubated with the appropriate horseradish peroxidase-conjugated secondary antibodies (1:5,000 dilution) for 1 h at room temperature and the bands were visualized using the Clarity Max Western ECL Substrate (Biorad) and the ChemiDoc Imaging System (Biorad). Signal was detected with ECL Western Blotting Substrate (Pierce) and X-ray film processed with a Konica SRX-101 X-ray film processor or captured by Bio-Rad's Chemidoc Imaging system.
HeLa cells (2.5×10^6) were treated for 24 hours with the sample compounds solubilized in DMSO. Compounds were added at 1-10 μM each. Standardized protein samples were electrophoresed and imaged as described in the immunoblotting description above. FIGS. 6-18 depicts the CURE-PRO-mediated BRD4 degradation for BRD monomers (JQ1 derivatives comprising of catechol linkers), and CRBN ligands, 8048 and 8049 (pomalidomide derivatives comprising boronic acid linkers) combined in a 1:1 ratio.
HeLa cells (2.5×10^6) were treated for 24 hours with the compounds solubilized in DMSO. The compounds were added at 10 μM each. Standardized protein samples were electrophoresed and imaged as described in the immunoblotting section above. […]

BRD4 [2] = biological target: T1, BRD4; test: Summary of E3 ligase directed degradation of BRD4, estimated from Western Blot or WES (Tables 1-6); design: endogenous in cells; host or cells: HeLa, MCF7 or HCT116; details: for Degradation of BRD4, combination with CRBN ligand [drawing 422] / Degradation of BRD4, combination with CRBN ligand [drawing 397] / Degradation of BRD4, combination with CRBN ligand [drawing 421]: Table 1; for Degradation of BRD4, combination with CRBN ligand [drawing 422]: CRBN ligand drawn as drawing 422 (by the text apparently 8066); for Degradation of BRD4, combination with CRBN ligand [drawing 397]: aromatic 1,2-diol- or hindered cis-1,2-diol-containing CRBN ligand drawn as drawing 397 (by the text apparently 8046); for Degradation of BRD4, combination with MDM2 ligand [drawing 431]: Table 2, aromatic 1,2-diol-containing MDM2 ligand drawn as drawing 431 (by the text apparently 8314); for Degradation of BRD4, combination with CRBN ligand [drawing 421]: CRBN ligand drawn as drawing 421 (by the text apparently 8047)
Experimental: as §2
WES Simple analysis was performed on WES system (ProteinSimple-Biotechne) according to the manufacturer's instructions. Total protein concentrations of cell lysates were determined by the Pierce BCA kit (Thermo Fisher). 3 μL of 0.3 μg/uL of the protein lysate was loaded onto a 12- to 230-kDa WES assay plate (ProteinSimple) where 300 nL sample was withdrawn through a capillary, subjected to electrophoretic separation of proteins by size, and followed by the simultaneous, HRP-based detection of proteins using the Anti-Rabbit Detection Module (Proteinsimple: #DM-001). The electropherograms were checked then the automatic peak detection was manually corrected if it was required.
A black check mark indicates efficacy of 30% to 70% or higher protein degradation.

MV-4-11 cells = test: CellTiter-Glo cell viability, MV-4-11 cells
Experimental: as §1
CellTiter-Glo® 2.0 Cell Viability Assay (Promega) was carried out following the manufacturer's recommendations. Cells were seeded at a density of 1000 cells/well in a white 96 well plates (Corning, #3917) in a total volume of 100 μl with respective monomers, combinations of BRD ligands together with E3 ligase ligands or vehicle control treatment. After a 72 h incubation, 100 ul of the CellTiter-Glo® substrate was added per well and luminescence was read on a Spectramax M5 (Molecular Devices). Dose-response curves were generated using Graphpad Prism software.
MV-4-11 cells (5×104) were treated for 24 hours with the sample compounds solubilized in DMSO. The compounds were added at 1 nM-100 μM each. Cellular viability was determined using the CellTiter-Glo® Luminescent Cell Viability Assay (Promega) described above. FIGS. 19-22 depict the CURE-PRO-mediated loss of cellular viability for BRD monomers (JQ1 derivatives comprising of catechol linkers), and CRBN ligand, 8049 (pomalidomide derivatives comprising boronic acid linkers) combined in a 1:1 ratio.
MV-4-11 cells (1×104) were treated for 72 hours with the compounds solubilized in DMSO. Compounds were added at 10 nM-100 μM each. Cellular viability was determined using the CellTiter-Glo® Luminescent Cell Viability Assay (Promega) described above. FIGS. 47-54 depict the CURE-PRO-mediated loss of cellular viability for BRD monomers (JQ1 derivatives comprising of boronic acid linkers), and CRBN ligands, 8046, 8047, and 8066 (pomalidomide derivatives comprising diol linkers) combined in a 1:1 ratio.

[3] = 72 h, 10 nM-100 μM, cotreated 1:1 with each of CRBN ligands 8066, 8046 and 8047, compared to monomers alone

SMILES: COc1ccc2c(c1)C(c1ccc(Cl)cc1)=N[C@@H](CC(=O)NCCCCCNC(=O)c1cccc(B(O)O)c1)c1nnc(C)n1-2 [BRD-E08]
- BRD4 degradation (BRD4 [1]; BRD ligand (monomer) alone): no change in expression is observed
- BRD4 degradation (BRD4 [1]; co-treated 1:1 with CRBN ligand 8046, 10 μM each unless the value states a concentration, listed as BRD-E8): Degradation is observed at 100 nM and 1 μM
- Degradation of BRD4, combination with CRBN ligand [drawing 422] (BRD4 [2]): ✓ (A black check mark indicates efficacy of 30% to 70% or higher protein degradation)
- Degradation of BRD4, combination with CRBN ligand [drawing 397] (BRD4 [2]): ✓ (A black check mark indicates efficacy of 30% to 70% or higher protein degradation)
- Degradation of BRD4, combination with MDM2 ligand [drawing 431] (BRD4 [2]): ✓ (A black check mark indicates efficacy of 30% to 70% or higher protein degradation)

SMILES: CCNC(=O)C[C@@H]1N=C(c2ccc(Cl)cc2)c2cc(OCCNC(=O)c3cccc(B(O)O)c3)ccc2-n2c(C)nnc21 [BRD-E21, (3-((2-(((4S)-6-(4-chlorophenyl)-4-(2-(ethylamino)-2-oxoethyl)-1-methyl-4H-benzo[f][1,2,4]triazolo[4,3-a][1,4]diazepin-8-yl)oxy)ethyl)carbamoyl)phenyl)boronic acid]
- BRD4 degradation (BRD4 [1]; BRD ligand (monomer) alone): no change in expression is observed
- Degradation of BRD4, combination with CRBN ligand [drawing 421] (BRD4 [2]): ✓ (A black check mark indicates efficacy of 30% to 70% or higher protein degradation)
- Degradation of BRD4, combination with MDM2 ligand [drawing 431] (BRD4 [2]): ✓ (A black check mark indicates efficacy of 30% to 70% or higher protein degradation)

SMILES: COc1ccc2c(c1)C(c1ccc(Cl)cc1)=N[C@@H](CC(=O)NCCNC(=O)/C=C/c1cccc(B(O)O)c1)c1nnc(C)n1-2 [BRD-E30, (3-((E)-3-((2-(2-((4S)-6-(4-chlorophenyl)-8-methoxy-1-methyl-4H-benzo[f][1,2,4]triazolo[4,3-a][1,4]diazepin-4-yl)acetamido)ethyl)amino)-3-oxoprop-1-en-1-yl)phenyl)boronic acid]
- BRD4 degradation (BRD4 [1]; BRD ligand (monomer) alone): no change in expression is observed
- Degradation of BRD4, combination with CRBN ligand [drawing 421] (BRD4 [2]): ✓ (A black check mark indicates efficacy of 30% to 70% or higher protein degradation)
- Degradation of BRD4, combination with CRBN ligand [drawing 422] (BRD4 [2]): ✓ (A black check mark indicates efficacy of 30% to 70% or higher protein degradation)

SMILES: CCNC(=O)C[C@@H]1N=C(c2ccc(Cl)cc2)c2cc(Sc3ccc(B(O)O)cc3)ccc2-n2c(C)nnc21 [BRD-E75, (4-(((4S)-6-(4-chlorophenyl)-4-(2-(ethylamino)-2-oxoethyl)-1-methyl-4H-benzo[f][1,2,4]triazolo[4,3-a][1,4]diazepin-8-yl)thio)phenyl)boronic acid]
- Degradation of BRD4, combination with MDM2 ligand [drawing 431] (BRD4 [2]): ✓ (A black check mark indicates efficacy of 30% to 70% or higher protein degradation)
- toxicity / loss of cellular viability (CellTiter-Glo) (MV-4-11 cells; [3]): reduced viability; also recorded: increased toxicity

SMILES: CCNC(=O)C[C@@H]1N=C(c2ccc(Cl)cc2)c2cc(Sc3cccc(B(O)O)c3)ccc2-n2c(C)nnc21 [BRD-E76]
- Degradation of BRD4, combination with CRBN ligand [drawing 397] (BRD4 [2]): ✓ (A black check mark indicates efficacy of 30% to 70% or higher protein degradation)
- toxicity / loss of cellular viability (CellTiter-Glo) (MV-4-11 cells; [3]): reduced viability; also recorded: increased toxicity

SMILES: CCNC(=O)C[C@@H]1N=C(c2ccc(Cl)cc2)c2cc(OCCCCCCCNC(=O)c3ccc(B(O)O)cc3)ccc2-n2c(C)nnc21 [BRD-E78]
- Degradation of BRD4, combination with VHL ligand [drawing 442] (BRD4 [2]; Table 3, aromatic 1,2-diol-containing VHL ligand drawn as drawing 442 (by the text apparently 8305)): ✓ (A black check mark indicates efficacy of 30% to 70% or higher protein degradation)
- toxicity / loss of cellular viability (CellTiter-Glo) (MV-4-11 cells; [3]): reduced viability; also recorded: increased toxicity

SMILES: COc1ccc2c(c1)C(c1ccc(Cl)cc1)=N[C@@H](CC(=O)NCCc1ccc(O)c(O)c1)c1nnc(C)n1-2 [BRD-N10, (S)-2-(6-(4-chlorophenyl)-8-methoxy-1-methyl-4H-benzo[f][1,2,4]triazolo[4,3-a][1,4]diazepin-4-yl)-N-(3,4-dihydroxyphenethyl)acetamide]
- Degradation of BRD4, combination with CRBN ligand [drawing 457] (BRD4 [2]; Table 4, aryl-boronic acid-containing CRBN ligand drawn as drawing 457 (by the text apparently 8048)): ✓ (A black check mark indicates efficacy of 30% to 70% or higher protein degradation)
- Degradation of BRD4, combination with CRBN ligand [drawing 458] (BRD4 [2]; Table 4, aryl-boronic acid-containing CRBN ligand drawn as drawing 458 (by the text apparently 8049)): ✓ (A black check mark indicates efficacy of 30% to 70% or higher protein degradation)
- Degradation of BRD4, combination with MDM2 ligand [drawing 463] (BRD4 [2]; Table 5, aryl-boronic acid-containing MDM2 ligand drawn as drawing 463 (apparently 8310)): ✓ (A black check mark indicates efficacy of 30% to 70% or higher protein degradation)
- toxicity / loss of cellular viability (CellTiter-Glo) (MV-4-11 cells; 1 nM-100 μM, cotreated 1:1 with CRBN ligand 8049): a concentration-dependent loss in cellular viability was observed; also recorded: increased toxicity
